Test results reported in patent US10047091B2, “Ionic liquid, lubricating agent, and magnetic recording medium” (Dexerials Corporation, priority 2012, dated 2018).
Where two headings read alike, the source gives them in different places.

What was measured:
[1] = acid dissociation constant (pKa) in water
Source text: As used herein, pKa refers to an acid dissociation constant, i.e., an acid dissociation constant in water or an acid dissociation constant in acetonitrile.
The acid dissociation constant in water can be measured, for example, with reference to the method described in J. Chem. Res., Synop. […] Specifically, it can be measured by a combination of a spectrometer with potentiometry.

[2] = cited from earlier work
[3] = acid dissociation constant (pKa) in acetonitrile; assay type: physicochemical
Source text: […]. Note that, the pKa values in acetonitrile is described in, for example, Blackwell Scientific Publications, Oxford, 1990, and J. Org. Chem. 2011, Vol. 76, pp. 391-395.
Although the acid dissociation constant in acetonitrile is not described herein because it is described in J. Org. Chem. 1998, 63, p. 7868 or J. Org. Chem. 1997, 62, p. 8479, it can be obtained by dissolving an acid in acetonitrile, titrating the resultant with a base, and measuring a spectrum by means of a UV-vis spectrometer.

TG/DTA thermal analysis = assay type: physicochemical; details: for 10% weight loss temperature: TG; for 10% weight loss temperature / Exothermic peak temperature in DTA measurement: air, 30° C. to 600° C., heating rate 10° C./min; for nature of the weight loss in TG/DTA: exothermic suggests decomposition reaction
Procedure: The measurement is performed in a temperature range of 30° C. to 600° C. at a heating rate of 10° C./min while introducing air at a flow rate of 200 mL/min using EXSTAR 6000 (manufactured by Seiko Instruments Inc.). As a gas chromatography mass spectrometer, 6890/5975 MSD (manufactured by Agilent Technologies, Inc.) was used. The following measurement conditions are used: column: DB-1 (15 m, diameter: 0.25 mm, membrane thickness: 0.1 μm); injection temperature: 280° C.; column temperature: initial temperature of 40° C., hold for 5 min, heated to 340° C. at the heating rate of 20° C./min, and hold at the same temperature; mass spectrometric unit: 5975MSD; MS detection mode: EI^+; quadrupole temperature: 150° C.; ion source temperature: 300° C.; mass scanning range: m/z 33-700; and calibration: PFTBA.
Ionic liquids obtained from Examples 2, 28, and 29 and Comparative Examples 16 and 17 were subjected to a TG measurement using EXSTAR 6000 (Seiko Instruments Inc.) (Examples 30 and 31, and Comparative Examples 18 and 19). Z-DOL was also subjected to the TG measurement (Comparative Example 20). Weight loss was measured while purging air in a temperature range of 30° C. to 600° C. at a heating rate of 10° C./min.
The TG/DTA measurement was performed in a temperature range of 30° C. to 600° C. at a heating rate of 10° C./min while introducing air at a flow rate of 200 mL/min using EXSTAR 6000 (manufactured by Seiko Instruments Inc.). As a gas chromatography mass spectrometer, 6890/5975 MSD (manufactured by Agilent Technologies, Inc.) was used. The following measurement conditions were used: column: DB-1 (15 m, diameter: 0.25 mm, membrane thickness: 0.1 μm); injection temperature: 280° C.; column temperature: initial temperature of 40° C., hold for 5 min, heated to 340° C. at the heating rate of 20° C./min, and hold at the same temperature; mass spectrometric unit: 5975MSD; MS detection mode: EI^+; quadrupole temperature: 150° C.; ion source temperature: 300° C.; mass scanning range: m/z 33-700; and calibration: PFTBA.

Compound | ΔpKa [3] | 10% weight loss temperature (TG/DTA thermal analysis) [°C] | nature of the weight loss in TG/DTA (TG/DTA thermal analysis) | pKa of Bronsted acid ([1]; in water) | further results
CCCCCCCCCCCCCCCCCCN.O=C(O)C(F)(F)C(F)(F)C(F)(F)C(F)(F)C(F)(F)C(F)(F)C(F)(F)F [Comparative ionic liquid 2, reference compound] |  |  |  |  | pKa of Bronsted acid [1]: 2.5
C1CCC2=NCCCN2CC1 [DBU, 1,8-diazabicyclo(5,4,0)-undecene-7] |  |  |  |  | pKa value ([2]; in water, cyclic amidine base): 12.5
CCCCCCCCCCCCCCCCCCN.O=S(=O)(NS(=O)(=O)C(F)(F)F)C(F)(F)F [Ionic liquid 1, n-octadecylamine-bistrifluoromethane sulfonylimide salt] | 17.9 | 329 | exothermic |  | 
CCCCCCCCCCCCCCCCCC(=O)O.CCCCCCCCCCCCCCCCCCN [Comparative ionic liquid 3, reference compound] |  |  |  | 5.0 | 
CCCCCCCCCCCCCCCCCCC1CCCCN2CCCN=C12.O=S1(=O)NS(=O)(=O)C(F)(F)C(F)(F)C1(F)F (stereo not drawn) [Ionic liquid 16, C18-DBU cyclo-hexafluoropropane-1,3-bis(sulfonyl)imide salt] | 25.2 | 386 | exothermic |  | Exothermic peak temperature in DTA measurement (TG/DTA thermal analysis): 474 °C
CCCCCCCCCCCCCCCCCCN1CCCN2CCCN=C12.O=S1(=O)NS(=O)(=O)C(F)(F)C(F)(F)C1(F)F [Ionic liquid 18, C18-TBD cyclo-hexafluoropropane-1,3-bis(sulfonyl)imide salt] | 26.4 | 380 | exothermic |  | 
CCCCCCCCCCCCCCCCCCN.O=S1(=O)NS(=O)(=O)C(F)(F)C(F)(F)C1(F)F [Ionic liquid 14, n-octadecylamine-cyclo-hexafluoropropane-1,3-bis(sulfonyl)imide salt] | 19.2 | 347 | exothermic |  | Exothermic peak temperature in DTA measurement (TG/DTA thermal analysis): 417 °C
CCCCCCCCCCCCCCCCCCN.O=S(=O)(O)O [Ionic liquid 3] |  |  |  | −3 | 
CCCCCCCCCCCCCCCCCCN.OCC(F)(F)C(F)(F)C(F)(F)C(F)(F)C(F)(F)C(F)(F)C(F)(F)F [Comparative ionic liquid 7, reference compound] |  | 62 |  | 7-9 | pKa of Bronsted base ([1]; in water): 10.7; ΔpKa (pKa value of Bronsted base minus pKa value of Bronsted acid) ([1]; in water): ≤ 4; ΔpKa (pKa value of Bronsted base minus pKa value of Bronsted acid) ([1]; in water, listed as Comparative Example 17): 1.7-3.7
CCCCCCCCCCCCCCCCCCN1CCCN2CCCN=C12.O=S(=O)(O)C(F)(F)C(F)(F)C(F)(F)C(F)(F)C(F)(F)C(F)(F)C(F)(F)C(F)(F)F [Ionic liquid 17, 7-n-octadecyl-1,5,7-triazabicyclo[4.4.0]-5-decene (C18-TBD) pentadecafluorooctane sulfonic acid salt] | 24.8 | 381 | exothermic |  | 
CCCCCCCCCCCCCCCC1CCCCN2CCCN=C12.O=S(=O)(O)C(F)(F)C(F)(F)C(F)(F)C(F)(F)C(F)(F)C(F)(F)C(F)(F)C(F)(F)F [Ionic liquid 11] |  | 372 |  | −3.3 | pKa of Bronsted base ([1]; in water): 12.5; increase of 10% weight loss temperature (TG/DTA thermal analysis; DBU derivative instead of stearylamine as Bronsted base): 45 °C; 10% weight loss temperature higher than that of Z-DOL (TG/DTA thermal analysis; difference to Z-DOL): ≥ 200 °C
C1CCC2=NCCCN2CC1.O=S(=O)(O)C(F)(F)C(F)(F)C(F)(F)C(F)(F)C(F)(F)C(F)(F)C(F)(F)C(F)(F)F [Comparative ionic liquid 8, DBU pentadecafluorooctane sulfonic acid salt, reference compound] | 23.6 | 393 | exothermic |  | Exothermic peak temperature in DTA measurement (TG/DTA thermal analysis): 432 °C
CCCCCCCCCCCCCCCCCCN.O=S(=O)(O)C(F)(F)C(F)(F)C(F)(F)C(F)(F)C(F)(F)C(F)(F)C(F)(F)C(F)(F)F [Ionic liquid 10] |  | 327 |  | −3.3 | pKa of Bronsted base ([1]; in water): 10.7
O=C(O)C(F)(F)C(F)(F)C(F)(F)C(F)(F)C(F)(F)C(F)(F)C(F)(F)F [perfluorooctanoic acid] |  |  |  |  | pKa [1]: 2.5
C1CN=C2NCCCN2C1.O=S(=O)(O)C(F)(F)C(F)(F)C(F)(F)C(F)(F)C(F)(F)C(F)(F)C(F)(F)F [Comparative ionic liquid 9, TBD pentadecafluoro sulfonic acid salt, reference compound] | 24.8 | 371 | exothermic |  | Exothermic peak temperature in DTA measurement (TG/DTA thermal analysis): 425 °C
CCCCCCCCCCCCCCCCCCN.O=C(O)C(F)(F)F [Comparative ionic liquid 1, reference compound] |  |  |  | 0.5 | 
CCCCCCCCCCCCCCCCCC(=O)O [stearic acid] |  |  |  |  | pKa ([1]; water): 5
CCCCCCCCCCCCCCCCCCN.O=C(O)C(F)(F)C(F)(F)C(F)(F)C(F)(F)C(F)(F)C(F)(F)C(F)(F)F [Comparative ionic liquid 6, reference compound] |  | 205 |  |  | pKa of Bronsted base ([1]; in water): 10.7; pKa of Bronsted acid ([1]; in water, listed as Comparative Example 16): 3.8
CCCCCCCCCCCCCCCCCCN.O=S(=O)(NS(=O)(=O)C(F)(F)C(F)(F)C(F)(F)C(F)(F)F)C(F)(F)C(F)(F)C(F)(F)C(F)(F)F [Ionic liquid 13, n-octadecylamine-bisnonafluorobutane sulfonylimide salt] | 18.3 | 331 | exothermic |  | 
CCCCCCCCCCCCCCCCCCC1CCCCN2CCCN=C12.O=S(=O)(O)C(F)(F)C(F)(F)C(F)(F)C(F)(F)C(F)(F)C(F)(F)C(F)(F)C(F)(F)F (stereo not drawn) [Ionic liquid 15, 6-n-octadecyl-1,8-diazabicyclo[5.4.0]-7-undecene (C18-DBU) pentadecafluorooctane sulfonic acid salt] | 23.6 | 384 | exothermic |  | 
CCCCCCCCCCCCCCCCCCN [octadecylamine] |  |  |  |  | pKa ([1]; water): 10.7
c1c[nH]cn1 [imidazole] |  |  |  |  | pKa value ([2]; solvent not stated): 14
CCCCCCCCCCCCCCCCCCN.CS(=O)(=O)O [Ionic liquid 4] |  |  |  | −2 | 
